# Reference: the kinase profiling compilation of Christmann-Franck et al. (2016)
# Where “and” joins values, the source holds several entries; their conditions need not be identical. Identical values can stand only once.
# How the values were obtained:
# Assay in all cases: radiometric filter-binding kinase assay, Kinase HotSpot
# Conditions in all cases: compound 0.5 µM; ATP 10 µM
# [1] = target: MYLK (human) (UniProt Q15746)
# [2] = target: MAP3K9 (human) (UniProt P80192)
# [3] = target: CSNK1A1 (human) (UniProt P48729)
# [4] = target: LIMK1 (human) (UniProt P53667)
# [5] = target: MATK (human) (UniProt P42679)
# [6] = target: SGK3 (human) (UniProt Q96BR1)
# [7] = target: CSNK1G1 (human) (UniProt Q9HCP0)
# [8] = target: CAMKK2 (human) (UniProt Q96RR4)
# [9] = target: PIM1 (human) (UniProt P11309)
# [10] = target: CDK1 CCNA2 (human) (UniProt P06493+P20248)
# [11] = target: SRMS (human) (UniProt Q9H3Y6)
# [12] = target: ACVR1B (human) (UniProt P36896)
# [13] = target: BMX (human) (UniProt P51813)
# [14] = target: SRPK1 (human) (UniProt Q96SB4)
# [15] = target: PRKG1 (human) (UniProt Q13976)
# [16] = target: FGFR2 (human) (UniProt P21802)
# [17] = target: MAPK11 (human) (UniProt Q15759)
# [18] = target: RPS6KA5 KD2 (human) (UniProt O75582)
# [19] = target: MAPK12 (human) (UniProt P53778)
# [20] = target: MAP2K1 (human) (UniProt Q02750)
# [21] = target: TNK2 (human) (UniProt Q07912)
# [22] = target: PLK3 (human) (UniProt Q9H4B4)
# [23] = target: ERBB2 (human) (UniProt P04626)
# [24] = target: AKT3 (human) (UniProt Q9Y243)
# [25] = target: TGFBR1 (human) (UniProt P36897)
# [26] = target: SRC (human) (UniProt P12931)
# [27] = target: CDK6 CCND3 (human) (UniProt P30281+Q00534)
# [28] = target: PRKG2 (human) (UniProt Q13237)
# [29] = target: CSK (human) (UniProt P41240)
# [30] = target: STK3 (human) (UniProt Q13188)
# [31] = target: MAPK8 (human) (UniProt P45983)
# [32] = target: ERBB4 (human) (UniProt Q15303)
# [33] = target: FGFR4 (human) (UniProt P22455)
# [34] = target: RIPK2 (human) (UniProt O43353)
# [35] = target: RPS6KA3 KD1 KD2 (human) (UniProt P51812)
# [36] = target: TAOK3 (human) (UniProt Q9H2K8)
# [37] = target: PTK2B (human) (UniProt Q14289)
# [38] = target: PRKD2 (human) (UniProt Q9BZL6)
# [39] = target: MARK4 (human) (UniProt Q96L34)
# [40] = target: JAK1 JH1 catalytic (human) (UniProt P23458)
# [41] = target: FGFR3 (human) (UniProt P22607)
# [42] = target: PAK2 (human) (UniProt Q13177)
# Sequence of PTK2B (human) (Q14289 whole entry, looked up): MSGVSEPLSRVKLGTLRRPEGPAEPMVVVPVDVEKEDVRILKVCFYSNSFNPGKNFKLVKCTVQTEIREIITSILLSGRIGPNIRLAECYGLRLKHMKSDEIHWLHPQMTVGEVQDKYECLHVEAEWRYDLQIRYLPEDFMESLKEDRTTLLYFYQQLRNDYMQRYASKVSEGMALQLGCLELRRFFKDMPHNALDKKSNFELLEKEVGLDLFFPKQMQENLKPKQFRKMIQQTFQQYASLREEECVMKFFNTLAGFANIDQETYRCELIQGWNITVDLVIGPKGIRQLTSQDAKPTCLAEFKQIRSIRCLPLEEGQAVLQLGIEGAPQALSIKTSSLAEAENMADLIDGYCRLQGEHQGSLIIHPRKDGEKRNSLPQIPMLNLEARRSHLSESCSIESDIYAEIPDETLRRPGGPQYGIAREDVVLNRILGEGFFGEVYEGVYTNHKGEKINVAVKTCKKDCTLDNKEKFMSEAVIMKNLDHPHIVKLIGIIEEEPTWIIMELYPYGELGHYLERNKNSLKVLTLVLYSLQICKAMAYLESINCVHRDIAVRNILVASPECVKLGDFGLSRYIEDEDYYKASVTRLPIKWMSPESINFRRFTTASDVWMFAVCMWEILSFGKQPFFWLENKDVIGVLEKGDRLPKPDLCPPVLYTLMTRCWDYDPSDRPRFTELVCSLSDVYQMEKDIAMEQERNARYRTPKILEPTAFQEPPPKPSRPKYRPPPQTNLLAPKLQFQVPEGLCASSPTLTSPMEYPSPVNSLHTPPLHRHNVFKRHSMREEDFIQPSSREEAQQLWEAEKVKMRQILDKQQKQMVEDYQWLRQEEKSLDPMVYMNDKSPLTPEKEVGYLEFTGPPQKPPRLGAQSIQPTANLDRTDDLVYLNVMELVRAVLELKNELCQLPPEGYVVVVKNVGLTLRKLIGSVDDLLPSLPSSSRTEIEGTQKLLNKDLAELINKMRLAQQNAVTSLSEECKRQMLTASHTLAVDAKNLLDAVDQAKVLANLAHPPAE
# Sequence of CDK6 CCND3 (human) (P30281 whole entry, looked up): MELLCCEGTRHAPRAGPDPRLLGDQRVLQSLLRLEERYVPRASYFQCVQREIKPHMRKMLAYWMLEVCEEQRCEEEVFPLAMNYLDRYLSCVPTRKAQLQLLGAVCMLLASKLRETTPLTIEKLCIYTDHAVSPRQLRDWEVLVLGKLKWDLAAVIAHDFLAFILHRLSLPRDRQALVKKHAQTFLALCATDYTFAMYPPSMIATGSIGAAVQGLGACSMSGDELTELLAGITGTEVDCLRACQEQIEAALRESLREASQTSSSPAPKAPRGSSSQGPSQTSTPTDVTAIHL
# Sequence of CDK6 CCND3 (human) (Q00534 whole entry, looked up): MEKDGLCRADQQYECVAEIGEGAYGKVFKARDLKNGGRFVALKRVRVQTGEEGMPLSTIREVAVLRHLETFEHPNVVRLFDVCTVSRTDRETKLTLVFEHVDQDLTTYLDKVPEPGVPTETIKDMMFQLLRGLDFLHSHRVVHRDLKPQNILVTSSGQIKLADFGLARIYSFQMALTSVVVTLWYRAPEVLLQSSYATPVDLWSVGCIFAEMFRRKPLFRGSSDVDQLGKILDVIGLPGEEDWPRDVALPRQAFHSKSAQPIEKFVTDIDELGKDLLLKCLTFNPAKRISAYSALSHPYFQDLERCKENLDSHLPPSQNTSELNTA
# Sequence of CDK1 CCNA2 (human) (P06493 whole entry, looked up): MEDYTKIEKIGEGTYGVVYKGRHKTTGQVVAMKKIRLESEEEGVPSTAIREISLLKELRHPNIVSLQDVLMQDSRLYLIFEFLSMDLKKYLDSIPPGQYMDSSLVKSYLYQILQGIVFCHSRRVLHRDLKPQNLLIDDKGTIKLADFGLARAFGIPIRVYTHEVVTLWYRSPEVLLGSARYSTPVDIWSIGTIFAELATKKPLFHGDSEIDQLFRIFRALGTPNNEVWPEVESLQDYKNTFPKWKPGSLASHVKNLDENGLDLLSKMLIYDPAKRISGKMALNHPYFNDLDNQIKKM
# Sequence of CDK1 CCNA2 (human) (P20248 whole entry, looked up): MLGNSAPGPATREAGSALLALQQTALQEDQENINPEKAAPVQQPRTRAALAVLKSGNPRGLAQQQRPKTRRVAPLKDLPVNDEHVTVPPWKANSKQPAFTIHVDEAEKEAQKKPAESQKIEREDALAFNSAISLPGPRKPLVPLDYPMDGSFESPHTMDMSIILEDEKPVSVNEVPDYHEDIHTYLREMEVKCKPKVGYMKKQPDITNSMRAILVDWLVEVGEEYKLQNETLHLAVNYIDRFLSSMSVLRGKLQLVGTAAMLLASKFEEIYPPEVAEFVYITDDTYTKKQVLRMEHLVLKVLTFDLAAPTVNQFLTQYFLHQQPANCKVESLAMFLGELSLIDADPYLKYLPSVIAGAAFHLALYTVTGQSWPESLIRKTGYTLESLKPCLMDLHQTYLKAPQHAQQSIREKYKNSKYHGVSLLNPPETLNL
# Sequence of PRKG1 (human) (Q13976 whole entry, looked up): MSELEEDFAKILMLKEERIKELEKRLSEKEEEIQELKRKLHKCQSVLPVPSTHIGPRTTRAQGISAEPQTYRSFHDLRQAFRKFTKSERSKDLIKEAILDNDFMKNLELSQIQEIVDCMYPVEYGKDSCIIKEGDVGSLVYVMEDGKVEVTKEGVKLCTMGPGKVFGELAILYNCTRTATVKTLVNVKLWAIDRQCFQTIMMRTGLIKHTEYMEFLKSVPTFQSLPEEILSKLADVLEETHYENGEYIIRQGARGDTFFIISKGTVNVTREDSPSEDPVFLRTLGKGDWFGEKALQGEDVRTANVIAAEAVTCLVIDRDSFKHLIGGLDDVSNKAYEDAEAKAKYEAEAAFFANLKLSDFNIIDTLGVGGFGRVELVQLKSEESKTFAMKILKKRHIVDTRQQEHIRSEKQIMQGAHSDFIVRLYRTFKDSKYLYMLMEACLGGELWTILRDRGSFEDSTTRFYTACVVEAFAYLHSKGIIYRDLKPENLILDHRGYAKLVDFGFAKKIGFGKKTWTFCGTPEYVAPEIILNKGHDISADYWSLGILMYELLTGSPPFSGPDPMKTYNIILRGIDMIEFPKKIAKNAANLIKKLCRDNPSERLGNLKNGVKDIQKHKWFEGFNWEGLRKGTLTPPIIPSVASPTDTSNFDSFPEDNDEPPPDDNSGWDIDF
# Sequence of PRKD2 (human) (Q9BZL6 whole entry, looked up): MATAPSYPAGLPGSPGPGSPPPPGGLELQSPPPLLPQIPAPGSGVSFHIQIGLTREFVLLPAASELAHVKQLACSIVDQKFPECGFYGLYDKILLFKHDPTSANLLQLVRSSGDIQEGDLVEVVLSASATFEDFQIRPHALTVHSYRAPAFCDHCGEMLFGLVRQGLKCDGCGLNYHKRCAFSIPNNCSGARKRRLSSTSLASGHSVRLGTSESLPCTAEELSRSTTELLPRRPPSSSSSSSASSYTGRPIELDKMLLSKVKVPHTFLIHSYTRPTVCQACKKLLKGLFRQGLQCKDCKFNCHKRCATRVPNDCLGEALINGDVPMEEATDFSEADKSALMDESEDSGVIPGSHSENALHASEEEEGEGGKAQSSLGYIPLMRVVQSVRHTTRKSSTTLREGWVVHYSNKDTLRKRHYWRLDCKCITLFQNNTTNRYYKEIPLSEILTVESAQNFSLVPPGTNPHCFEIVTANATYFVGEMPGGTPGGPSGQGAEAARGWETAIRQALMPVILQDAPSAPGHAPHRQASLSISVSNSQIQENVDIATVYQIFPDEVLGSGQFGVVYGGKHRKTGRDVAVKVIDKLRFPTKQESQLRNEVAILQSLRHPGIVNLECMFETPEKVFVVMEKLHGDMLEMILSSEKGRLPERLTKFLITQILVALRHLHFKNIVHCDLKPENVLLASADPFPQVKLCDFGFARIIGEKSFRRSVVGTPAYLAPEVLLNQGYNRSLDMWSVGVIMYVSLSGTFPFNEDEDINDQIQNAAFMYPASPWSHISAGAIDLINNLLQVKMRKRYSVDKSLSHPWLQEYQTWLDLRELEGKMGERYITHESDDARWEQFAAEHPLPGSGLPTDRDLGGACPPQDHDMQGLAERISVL
# Sequence of SRMS (human) (Q9H3Y6 whole entry, looked up): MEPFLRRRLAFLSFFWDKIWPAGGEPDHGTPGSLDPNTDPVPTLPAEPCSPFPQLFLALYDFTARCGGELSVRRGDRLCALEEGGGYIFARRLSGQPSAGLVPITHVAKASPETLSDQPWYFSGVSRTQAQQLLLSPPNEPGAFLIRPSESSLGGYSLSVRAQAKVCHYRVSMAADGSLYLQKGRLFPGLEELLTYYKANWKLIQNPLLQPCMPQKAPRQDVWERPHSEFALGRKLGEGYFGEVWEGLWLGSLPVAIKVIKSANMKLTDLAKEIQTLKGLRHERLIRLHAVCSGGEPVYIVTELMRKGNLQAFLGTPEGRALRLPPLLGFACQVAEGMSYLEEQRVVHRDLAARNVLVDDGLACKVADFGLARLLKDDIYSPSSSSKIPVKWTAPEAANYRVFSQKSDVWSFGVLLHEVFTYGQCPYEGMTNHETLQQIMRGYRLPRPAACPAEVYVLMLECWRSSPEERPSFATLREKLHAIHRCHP
# Sequence of AKT3 (human) (Q9Y243 whole entry, looked up): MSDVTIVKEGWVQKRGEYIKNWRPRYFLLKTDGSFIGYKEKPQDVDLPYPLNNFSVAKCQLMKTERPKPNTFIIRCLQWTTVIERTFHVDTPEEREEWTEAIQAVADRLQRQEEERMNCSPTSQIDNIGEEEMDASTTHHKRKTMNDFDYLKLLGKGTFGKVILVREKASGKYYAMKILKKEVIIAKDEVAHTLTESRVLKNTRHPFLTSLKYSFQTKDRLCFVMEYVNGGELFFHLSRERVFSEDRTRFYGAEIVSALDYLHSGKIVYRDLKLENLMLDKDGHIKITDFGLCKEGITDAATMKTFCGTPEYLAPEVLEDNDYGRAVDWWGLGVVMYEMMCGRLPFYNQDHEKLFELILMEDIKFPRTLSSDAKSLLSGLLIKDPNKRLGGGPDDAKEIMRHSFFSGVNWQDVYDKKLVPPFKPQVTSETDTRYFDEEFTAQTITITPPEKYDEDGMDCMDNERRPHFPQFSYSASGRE
structure (smiles),measurement,setting,value
O=C(O)/C=C/c1cc(Br)c(Br)c(Br)c1Br,residual activity,[1],83.3%
same,residual activity,[2],101%
same,residual activity,[3],79.3%
same,residual activity,[4],101%
same,residual activity,[5],87.2%
same,residual activity,[6],85.7%
same,residual activity,[7],97.2%
same,residual activity,[8],79.6%
same,residual activity,[9],16.2%
same,residual activity,[10],88.6%
same,residual activity,[11],89.3%
same,residual activity,[12],103%
same,residual activity,[13],97%
same,residual activity,[14],79.3%
same,residual activity,[15],78.9% and 89%
same,residual activity,[16],99.5%
same,residual activity,[17],92.7%
same,residual activity,[18],88.3%
same,residual activity,[19],103%
same,residual activity,[20],95.8%
same,residual activity,[21],110%
same,residual activity,[22],73.6%
same,residual activity,[23],95.4%
same,residual activity,[24],92.7%
same,residual activity,[25],90.8%
same,residual activity,[26],88.8%
same,residual activity,[27],102%
same,residual activity,[28],80.3%
same,residual activity,[29],103%
same,residual activity,[30],91.4%
same,residual activity,[31],86.8%
same,residual activity,[32],104%
same,residual activity,[33],88.3%
same,residual activity,[34],88.4%
same,residual activity,[35],41.2%
same,residual activity,[36],85.3%
same,residual activity,[37],93.3%
same,residual activity,[38],71.6%
same,residual activity,[39],93.1%
same,residual activity,[40],98.8%
same,residual activity,[41],94.9%
same,residual activity,[42],83.2%
O=C1NC(=O)/C(=C\c2ccc3nccnc3c2)S1,residual activity,[1],97.1%
same,residual activity,[2],102%
same,residual activity,[3],89.2%
same,residual activity,[4],87.4%
same,residual activity,[5],90.5%
same,residual activity,[6],94.3%
same,residual activity,[7],101%
same,residual activity,[8],72.9%
same,residual activity,[9],61.7%
same,residual activity,[10],90.7%
same,residual activity,[11],96.6%
same,residual activity,[12],109%
same,residual activity,[13],98.6%
same,residual activity,[14],110%
same,residual activity,[15],113% and 98.3%
same,residual activity,[16],95%
same,residual activity,[17],99.2%
same,residual activity,[18],87.8%
same,residual activity,[19],96.6%
same,residual activity,[20],89.5%
same,residual activity,[21],91.4%
same,residual activity,[22],97.7%
same,residual activity,[23],107%
same,residual activity,[24],104%
same,residual activity,[25],98.5%
same,residual activity,[26],102%
same,residual activity,[27],95.8%
same,residual activity,[28],106%
same,residual activity,[29],86.3%
same,residual activity,[30],104%
same,residual activity,[31],91.5%
same,residual activity,[32],99.4%
same,residual activity,[33],98%
same,residual activity,[34],76.8%
same,residual activity,[35],101%
same,residual activity,[36],93.1%
same,residual activity,[37],106%
same,residual activity,[38],104%
same,residual activity,[39],89.9%
same,residual activity,[40],103%
same,residual activity,[41],97.3%
same,residual activity,[42],98.4%
Cn1nc2c3c(cccc31)C(=O)c1ccccc1-2,residual activity,[1],77.4%
same,residual activity,[2],99.4%
same,residual activity,[3],47.8%
same,residual activity,[4],97.1%
same,residual activity,[5],88%
same,residual activity,[6],107%
same,residual activity,[7],102%
same,residual activity,[8],74.9%
same,residual activity,[9],80.3%
same,residual activity,[10],88%
same,residual activity,[11],104%
same,residual activity,[12],102%
same,residual activity,[13],101%
same,residual activity,[14],99.7%
same,residual activity,[15],93.7% and 96%
same,residual activity,[16],105%
same,residual activity,[17],109%
same,residual activity,[18],100%
same,residual activity,[19],93.8%
same,residual activity,[20],86.3%
same,residual activity,[21],83.3%
same,residual activity,[22],96.2%
same,residual activity,[23],96.9%
same,residual activity,[24],102%
same,residual activity,[25],93.7%
same,residual activity,[26],90.7%
same,residual activity,[27],101%
same,residual activity,[28],105%
same,residual activity,[29],88.7%
same,residual activity,[30],88.4%
same,residual activity,[31],87.2%
same,residual activity,[32],94.3%
same,residual activity,[33],108%
same,residual activity,[34],75.7%
same,residual activity,[35],97.3%
same,residual activity,[36],87.6%
same,residual activity,[37],102%
same,residual activity,[38],77%
same,residual activity,[39],91.1%
same,residual activity,[40],110%
same,residual activity,[41],95.9%
same,residual activity,[42],102%
COc1ccc(OC)c2c(=S)c3ccccc3[nH]c12,residual activity,[1],89.8%
same,residual activity,[2],102%
same,residual activity,[3],102%
same,residual activity,[4],108%
same,residual activity,[5],89.5%
same,residual activity,[6],90.7%
same,residual activity,[7],120%
same,residual activity,[8],108%
same,residual activity,[9],93%
same,residual activity,[10],96.2%
same,residual activity,[11],83.5%
same,residual activity,[12],108%
same,residual activity,[13],105%
same,residual activity,[14],99.9%
same,residual activity,[15],101% and 94.4%
same,residual activity,[16],95.8%
same,residual activity,[17],86.7%
same,residual activity,[18],86%
same,residual activity,[19],98.1%
same,residual activity,[20],91.7%
same,residual activity,[21],96.3%
same,residual activity,[22],99.8%
same,residual activity,[23],93.6%
same,residual activity,[24],92%
same,residual activity,[25],99.1%
same,residual activity,[26],90.6%
same,residual activity,[27],102%
same,residual activity,[28],62.2%
same,residual activity,[29],103%
same,residual activity,[30],104%
same,residual activity,[31],96.8%
same,residual activity,[32],104%
same,residual activity,[33],91.1%
same,residual activity,[34],108%
same,residual activity,[35],109%
same,residual activity,[36],92.7%
same,residual activity,[37],92.7%
same,residual activity,[38],88.1%
same,residual activity,[39],95.7%
same,residual activity,[40],102%
same,residual activity,[41],94.9%
same,residual activity,[42],104%
